Reference: US20260365688A1, “STRAINED BICYCLONONENES” (TAGWORKS PHARMACEUTICALS B.V., priority 2022, published 2026)

Experiments:
Assay type in all cases: physicochemical
[1] = Second-order rate constant of IEDDA reaction of TCO with tetrazine 2.1 in MeCN by UV-Vis; conditions: activator 2.1; in MeCN at 20 °C; second-order conditions
Method: (§1) The second-order rate constant of the IEDDA reaction of 3,6-dimethyl-1,2,4,5-tetrazine (2.1) or 3,6-di(pyridin-2-yl)-1,2,4,5-tetrazine (2.2) and a compound of the disclosure in MeCN at 20 °C was determined by UV-Vis spectrometry under second-order reaction conditions (n=1). A cuvette was filled with a solution of 3,6-dimethyl-1,2,4,5-tetrazine or 3,6-di(pyridin-2-yl)-1,2,4,5-tetrazine (3 mL 0.083 mM in MeCN), and equilibrated at 20 °C. Next, a solution of the compound of the disclosure (10.0 μL 25 mM in acetonitrile, 2.50×10^−7 mol) was added, and the solution was quickly homogenized and inserted in the UV spectrometer. The absorption at λ=540 nm (specific for the tetrazine moiety) was measured every second in a time course experiment. From the decay of this absorption, the conversion was calculated. The second-order rate constant k2 was determined from the slope of the curve of a plot of 1/c −1/c0 versus time.

[2] = Releasing activity of s-TCO derivatives on reaction with 3,6-dimethyl-1,2,4,5-tetrazine (HPLC-MS PDA); conditions: acetonitrile/PBS; for formation of the (pyridazine) elimination product: after 30 min
Method: To a stock solution of 1.7 (10 uL 17.8 mM in DMSO, 1.78×10^−7 mol) was added acetonitrile (0.2 mL), PBS (0.8 mL), and a stock solution of 3,6-dimethyl-1,2,4,5-tetrazine (7.1 uL 25 mM in DMSO, 1.78×10^−7 mol). […] ESI-MS: m/z Calc. for C18H21N3O4 343.15 Da; Obs. [M+H]^+ 344.25 Da, max=243 nm.
To a solution of 1.21 (3.75×10^−7 mol) in acetonitrile (0.2 mL) was added PBS (0.8 mL), and a stock solution of 3,6-dimethyl-1,2,4,5-tetrazine (20 uL 25 mM in DMSO, 5.0×10^−7 mol). […] ESI-MS: m/z Calc. for C18H21N3O4 343.15 Da; Obs. [M+H]^+ 344.25 Da, λmax=250 nm.
To a solution of 1.22 (3.75×10-8 mol) in acetonitrile (0.02 mL) was added PBS (0.08 mL), and a stock solution of 3,6-dimethyl-1,2,4,5-tetrazine (2 uL 25 mM in DMSO, 5.0×10-8 mol).

[3] = Second-order rate constant of IEDDA reaction of TCO with tetrazine 2.2 in MeCN by UV-Vis; conditions: activator 2.2; in MeCN at 20 °C; second-order conditions
Method: as §1

For `CN(Cc1ccccc1)C(=O)O[C@H]1/C=C/C[C@@H]2[C@H](CC1)[C@@H]2C(=O)ON1C(=O)CCC1=O` [Compound 1.7, 2,5-Dioxopyrrolidin-1-yl (1R,5R,8S,9S,E)-5-((benzyl(methyl)carbamoyl)oxy)bicyclo[6.1.0]non-3-ene-9-carboxylate], the “Rate constants k2” value [1] was 2.9 M⁻¹ s⁻¹, the “disappearance of the pink color (tetrazine consumption)” value [2] was “within minutes” and the “formation of the (pyridazine) elimination product” value [2] was “quantitative formation”. The “Rate constants k2” value [3] was 375 M⁻¹ s⁻¹.
With `CN(Cc1ccccc1)C(=O)O[C@@H]1/C=C/CCC[C@@H]2[C@H](C(=O)ON3C(=O)CCC3=O)[C@@H]21` [Compound 1.21, 2,5-Dioxopyrrolidin-1-yl (1R,2R,8S,9S,E)-2-((benzyl(methyl)carbamoyl)oxy)bicyclo[6.1.0]non-3-ene-9-carboxylate] the “Rate constants k2” value [1] was 8.0 M⁻¹ s⁻¹, the “disappearance of the pink color (tetrazine consumption)” value [2] was “within minutes” and the “formation of the (pyridazine) elimination product” value [2] was “quantitative formation”. The “Rate constants k2” value [3] was 605 M⁻¹ s⁻¹.
With `COC(=O)[C@H]1[C@H]2CCC/C=C/[C@@H](O)[C@H]21` [Compound 1.16a, Methyl (1R,2R,8S,9S,E)-2-hydroxybicyclo[6.1.0]non-3-ene-9-carboxylate] the “Rate constants k2” value [1] was 7.0 M⁻¹ s⁻¹.
With `O=C1O[C@@H]2C=CCCC[C@@H]3[C@H]1[C@@H]32` (stereo in doubt) [Compound 1.17b, (1R,2S,8R,11S,E)-9-Oxatricyclo[6.3.0.0^2,11]undec-6-en-10-one] the “Rate constants k2” value [1] was 8.7 M⁻¹ s⁻¹.
For `COC(=O)[C@@H]1[C@@H]2C/C=C/[C@H](O)CC[C@@H]21` [Compound 1.6b, Methyl (1R,5R,8S,9S,E)-5-hydroxybicyclo[6.1.0]non-3-ene-9-carboxylate], the “Rate constants k2” value [1] was 3.3 M⁻¹ s⁻¹.
For `O=C1O[C@@H]2C=CCCC[C@@H]3[C@H]1[C@@H]32` (stereo in doubt) [Compound 1.17a, (1R,2S,8R,11S,E)-9-Oxatricyclo[6.3.0.0^2,11]undec-6-en-10-one], the “Rate constants k2” value [1] was 11.5 M⁻¹ s⁻¹ and the “Rate constants k2” value [3] was 1100 M⁻¹ s⁻¹.
With `COC(=O)[C@H]1[C@H]2CCC/C=C/[C@@H](O)[C@H]21` [Compound 1.16b, Methyl (1R,2R,8S,9S,E)-2-hydroxybicyclo[6.1.0]non-3-ene-9-carboxylate] the “Rate constants k2” value [1] was 0.3 M⁻¹ s⁻¹.
